Experimental data from ChEMBL document CHEMBL1201862, “PubChem BioAssay data set” (2004).
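Each compound was tested at five concentrations against cells in 96-well plates for 48 hours. GI50 marks 50% less growth.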 The source made the active and inactive calls. Rule as the data show it: active = GI50 up to about 1.1 µM and inactive = higher.

Columns and labels:
Test in all cases: NCI-60 cell line screen, 48 h
HL-60 = test system: HL-60
HT-29 = test system: HT-29
M14 = test system: M14
OVCAR-8 = test system: OVCAR-8
RXF 393 = test system: RXF 393
HCC 2998 = test system: HCC 2998
SNB-75 = test system: SNB-75
LOX IMVI = test system: LOX IMVI
786-0 = test system: 786-0
NCI-H226 = test system: NCI-H226
SK-MEL-28 = test system: SK-MEL-28
HCT-116 = test system: HCT-116
A498 = test system: A498
NCI-H23 = test system: NCI-H23
UACC-257 = test system: UACC-257
T47D = test system: T47D
BT-549 = test system: BT-549
UACC-62 = test system: UACC-62
MDA-MB-231 = test system: MDA-MB-231
SW-620 = test system: SW-620

Measured: GI50

CC[N+](C)(CC)CCC(O)(c1ccccc1)c1ccccc1
inactive: HL-60 > 100 µM | HT-29 > 100 µM | M14 > 100 µM | OVCAR-8 > 100 µM | RXF 393 > 100 µM | HCC 2998 > 100 µM | SNB-75 > 100 µM | LOX IMVI > 100 µM | 786-0 > 100 µM | NCI-H226 > 100 µM | SK-MEL-28 > 100 µM | HCT-116 > 100 µM | A498 > 100 µM | NCI-H23 > 100 µM | UACC-257 > 100 µM | T47D > 100 µM | BT-549 > 100 µM | UACC-62 > 100 µM | MDA-MB-231 > 100 µM | SW-620 > 100 µM

CC(=O)C1=C(C)N2C(=NC3=C(CCc4ccccc43)C2c2ccc(F)cc2)S1 (stereo not given)
inactive: HL-60 28.4 µM | HT-29 84.1 µM | M14 > 100 µM | OVCAR-8 62.5 µM | RXF 393 52.6 µM | HCC 2998 83.9 µM | SNB-75 25.6 µM | LOX IMVI 44.2 µM | 786-0 > 100 µM | NCI-H226 > 100 µM | SK-MEL-28 > 100 µM | HCT-116 > 100 µM | A498 45.7 µM | NCI-H23 > 100 µM | UACC-257 79.4 µM | T47D 63.5 µM | BT-549 93.5 µM | UACC-62 78.2 µM | MDA-MB-231 22.3 µM | SW-620 > 100 µM

C[N+](C)(C)C(Cc1c[nH]c(=S)[nH]1)C(=O)O (stereo not given)
inactive: HL-60 > 100 µM | HT-29 > 100 µM | M14 > 100 µM | OVCAR-8 > 100 µM | RXF 393 > 100 µM | HCC 2998 > 100 µM | SNB-75 > 100 µM | LOX IMVI > 100 µM | 786-0 > 100 µM | NCI-H226 > 100 µM | SK-MEL-28 > 100 µM | HCT-116 > 100 µM | A498 > 100 µM | NCI-H23 > 100 µM | UACC-257 > 100 µM | T47D > 100 µM | BT-549 > 100 µM | UACC-62 > 100 µM | MDA-MB-231 > 100 µM | SW-620 > 100 µM
